The source of these data is ChEMBL document CHEMBL1201862, “PubChem BioAssay data set” (2004).

Test systems include COLO 205; 786-0; OVCAR-5; ACHN; SK-MEL-28; M14; CAKI-1; EKVX; UO-31; HOP-62; SN12C; IGROV-1; MDA-N; SNB-19; LOX IMVI; SF-295; HOP-92; NCI-H460; Malme-3M; HCC 2998.
Holding throughout (experiment): inhibition of tumour cell growth, NCI panel, 48 h

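Five concentrations, 48 hours, 96-well plates. At the GI50, growth is halved.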 Activity calls are given as the source filed them. Rule as the data show it: active = GI50 up to about 1.1 µM and inactive = higher.

On to `COC(=O)C1(NC(=O)C(CC(=O)OCc2ccccc2)NC(=O)OCc2ccccc2)CCCCCCC1` (stereo unspecified), for which the GI50 is 25.8 µM (inactive) with COLO 205; 63.8 µM (inactive) with 786-0; 62.7 µM (inactive) in the assay with OVCAR-5; 34.4 µM (inactive) with ACHN; 8.69 µM (inactive) with SK-MEL-28; 34.4 µM (inactive) with M14. In addition, the GI50 in the assay on CAKI-1 was 31.1 µM (inactive); in the assay with EKVX it was 45.4 µM (inactive); with UO-31 it was 35.6 µM (inactive); in the assay with HOP-62, > 100 µM (inactive); in the assay with SN12C it was 36.6 µM (inactive); in the assay on IGROV-1, 30 µM (inactive). Moreover, the GI50 with MDA-N is 28.6 µM (inactive); in the assay on SNB-19 it was 49.5 µM (inactive); in the assay on LOX IMVI, 28.2 µM (inactive); in the assay with SF-295, 31.6 µM (inactive); in the assay with HOP-92, 42.9 µM (inactive); with NCI-H460, 30.7 µM (inactive).

As to `CN(C)Cc1cc(/C=C/C(=O)c2ccc(Cl)c(Cl)c2)cc(CN(C)C)c1O`, the GI50 with COLO 205 is 11.2 µM (inactive); in the assay on 786-0, 9.4 µM (inactive); in the assay on OVCAR-5, 12.5 µM (inactive); with ACHN, 12.8 µM (inactive); with SK-MEL-28, 12.5 µM (inactive); with M14, 13 µM (inactive). For the same molecule, the GI50 in the assay on CAKI-1 was 9.02 µM (inactive); in the assay on EKVX, 15.6 µM (inactive); in the assay with Malme-3M, 9.59 µM (inactive); in the assay on UO-31, 6.46 µM (inactive); in the assay on HOP-62, 15.5 µM (inactive); in the assay with SN12C, 13.5 µM (inactive). Moreover, the GI50 was 9.98 µM (inactive) in the assay with IGROV-1; 6.35 µM (inactive) in the assay with HCC 2998; 11.2 µM (inactive) in the assay with MDA-N; 15 µM (inactive) in the assay on SNB-19; 20.2 µM (inactive) in the assay with SF-295; 10.4 µM (inactive) with NCI-H460.

For `CN1CCC2(CC1)C(=O)N(N1CCCCCC1)C(=O)N2c1ccccc1`, the GI50 in the assay on COLO 205, in the assay on 786-0, in the assay with OVCAR-5, with ACHN, with SK-MEL-28 and in the assay with M14 was > 100 µM (inactive) throughout. Also, the GI50 in the assay on CAKI-1, in the assay with EKVX, with Malme-3M, in the assay with UO-31, in the assay on HOP-62 and with SN12C was > 100 µM (inactive) throughout. Besides, the GI50 with IGROV-1, with HCC 2998, with MDA-N, with SNB-19, in the assay on LOX IMVI and in the assay on SF-295 was > 100 µM (inactive) throughout. The GI50 in the assay on NCI-H460 was > 100 µM (inactive).

As for `Cc1c2ccccc2nc2[nH]c3ccncc3c12`, the GI50 was 40.4 µM (inactive) in the assay on COLO 205; 16.3 µM (inactive) with 786-0; 35.3 µM (inactive) in the assay on OVCAR-5; 18.7 µM (inactive) with ACHN; 70.6 µM (inactive) with SK-MEL-28; 32.8 µM (inactive) with M14. In addition, the GI50 in the assay on CAKI-1 was 25.2 µM (inactive); in the assay with EKVX it was 13.9 µM (inactive); in the assay on Malme-3M, 31 µM (inactive); with UO-31 it was 25.9 µM (inactive); with HOP-62 it was 25.6 µM (inactive); with SN12C it was 13.1 µM (inactive). Further, the GI50 in the assay on IGROV-1 is 29.5 µM (inactive); in the assay with MDA-N it was 35 µM (inactive); in the assay with SNB-19 it was 36.1 µM (inactive); with LOX IMVI it was 20.6 µM (inactive); with SF-295 it was 31.6 µM (inactive); with HOP-92, 33 µM (inactive). For the same molecule, the GI50 in the assay on NCI-H460 was 15.4 µM (inactive).

On to `CC(C)(C)C(=O)N1CCN(C=O)C1=S`, for which the GI50 is > 100 µM (inactive) in the assay on COLO 205; 36.7 µM (inactive) in the assay on 786-0; > 100 µM (inactive) in the assay on OVCAR-5; 57.9 µM (inactive) in the assay on ACHN; 50.4 µM (inactive) in the assay on SK-MEL-28; 31 µM (inactive) in the assay with M14. For the same molecule, the GI50 in the assay with CAKI-1 is 34.6 µM (inactive); in the assay on EKVX, > 100 µM (inactive); with Malme-3M, 61.4 µM (inactive); in the assay with UO-31 it was 0.0693 µM (active); in the assay with HOP-62, > 100 µM (inactive); in the assay on SN12C, 36.8 µM (inactive). The GI50 in the assay with IGROV-1 is 47.3 µM (inactive); in the assay with HCC 2998, 64.9 µM (inactive); with SNB-19, > 100 µM (inactive); in the assay on LOX IMVI it was 34.2 µM (inactive); in the assay on SF-295, > 100 µM (inactive); with HOP-92, 16.8 µM (inactive). For the same molecule, the GI50 in the assay with NCI-H460 is > 100 µM (inactive).

As for `CCCNC1=Nc2ccccc2N(Cc2ccccc2)CC1`, the GI50 is 10.9 µM (inactive) in the assay on COLO 205; 32.4 µM (inactive) with 786-0; 40.2 µM (inactive) with OVCAR-5; 23.2 µM (inactive) with ACHN; 13.3 µM (inactive) in the assay with SK-MEL-28; 14.3 µM (inactive) with M14. Besides, the GI50 in the assay on CAKI-1 was 21.3 µM (inactive); in the assay with EKVX it was 30.5 µM (inactive); in the assay with Malme-3M, 10.3 µM (inactive); in the assay on UO-31 it was 30.3 µM (inactive); with HOP-62, 30.5 µM (inactive); in the assay with SN12C it was 31.5 µM (inactive). The GI50 with IGROV-1 was 4.54 µM (inactive); in the assay on MDA-N, 26 µM (inactive); in the assay on SNB-19, 22.2 µM (inactive); with SF-295 it was 24.9 µM (inactive); in the assay on NCI-H460, 13.4 µM (inactive).

For the molecule `CCCCN(CCCC)C1=Nc2ccccc2-n2c(nnc2C(=O)OCC)C1`, the GI50 was 18.5 µM (inactive) in the assay with COLO 205; 73.1 µM (inactive) with 786-0; > 100 µM (inactive) in the assay on OVCAR-5; 38.3 µM (inactive) in the assay on ACHN; 82.2 µM (inactive) in the assay with SK-MEL-28; 44.3 µM (inactive) in the assay on M14. Further, the GI50 with CAKI-1 was 49.9 µM (inactive); in the assay with EKVX, 71.9 µM (inactive); in the assay with Malme-3M, 24.6 µM (inactive); with UO-31 it was 31.8 µM (inactive); in the assay with HOP-62, 95.1 µM (inactive); with SN12C, 51.1 µM (inactive). For the same molecule, the GI50 in the assay on IGROV-1 is 35.9 µM (inactive); in the assay on HCC 2998 it was 38.8 µM (inactive); in the assay on SNB-19, 91.2 µM (inactive); with LOX IMVI, 38.8 µM (inactive); in the assay on SF-295, 44.7 µM (inactive); in the assay on HOP-92, 33.6 µM (inactive). For the same molecule, in the assay on NCI-H460, the GI50 is 22.7 µM (inactive).

For `CCOC(=O)CCC(NC(=O)OCc1ccccc1)C(=O)NC(CCC(=O)OCC)C(=O)NC(CCC(=O)OCC)C(=O)NC(CCC(=O)OCC)C(=O)NC(CCC(=O)OCC)C(=O)NC(CCC(=O)OCC)C(=O)NC(CCC(=O)OCC)C(=O)OCC` (stereo unspecified), the GI50 with 786-0, in the assay on OVCAR-5, in the assay on ACHN, in the assay on SK-MEL-28, in the assay with M14 and with CAKI-1 was > 100 µM (inactive) in each case. The GI50 in the assay on Malme-3M is 90.6 µM (inactive); with UO-31 it was 79.4 µM (inactive); in the assay with HOP-62, > 100 µM (inactive); in the assay with SN12C, > 100 µM (inactive); with HCC 2998, 26.1 µM (inactive); in the assay on MDA-N, > 100 µM (inactive). The GI50 in the assay with SNB-19, with LOX IMVI and in the assay with NCI-H460 was > 100 µM (inactive) throughout.

With `O=C(O)CCC(=O)N1c2ccccc2CC1c1c[nH]c2ccccc12` (stereo unspecified), the GI50 in the assay on COLO 205, with 786-0, in the assay on OVCAR-5, with ACHN, in the assay with SK-MEL-28 and in the assay with M14 was > 100 µM (inactive) each time. The GI50 is > 100 µM (inactive) in the assay on CAKI-1; > 100 µM (inactive) in the assay on EKVX; > 100 µM (inactive) in the assay with Malme-3M; 33.2 µM (inactive) with UO-31; > 100 µM (inactive) in the assay with HOP-62; > 100 µM (inactive) with SN12C. In addition, the GI50 in the assay with IGROV-1, with HCC 2998, with SNB-19, with LOX IMVI, with SF-295 and with HOP-92 was > 100 µM (inactive) in each case. Further, the GI50 in the assay with NCI-H460 was > 100 µM (inactive).

Consider `CC1=C(C(=O)OCCO[N+](=O)[O-])C(c2ccccc2C(F)(F)F)C(C(=O)OC(C)C)=C(C)N1` (stereo unspecified), for which the GI50 was 14 µM (inactive) in the assay with COLO 205; 15 µM (inactive) in the assay on 786-0; 14.8 µM (inactive) in the assay on OVCAR-5; 25.7 µM (inactive) with ACHN; 16.6 µM (inactive) in the assay on SK-MEL-28; 13.1 µM (inactive) with M14. The GI50 was 11.4 µM (inactive) with CAKI-1; 24.6 µM (inactive) with EKVX; 18.3 µM (inactive) in the assay on Malme-3M; 11.3 µM (inactive) with UO-31; 20.6 µM (inactive) with HOP-62; 16.8 µM (inactive) in the assay on SN12C. In addition, the GI50 in the assay on IGROV-1 was 13.1 µM (inactive); in the assay on HCC 2998, 22.4 µM (inactive); in the assay on SNB-19, 18.2 µM (inactive); in the assay with LOX IMVI, 13.9 µM (inactive); in the assay on SF-295, 11.8 µM (inactive); with HOP-92 it was 3.03 µM (inactive). Moreover, in the assay with NCI-H460, the GI50 is 10.7 µM (inactive).

`C/C(=C/C(=O)N(C)c1ccccc1Cl)O[Si](C(C)C)(C(C)C)C(C)C`: the GI50 with COLO 205 is 16.8 µM (inactive); in the assay with 786-0 it was 18.1 µM (inactive); in the assay on OVCAR-5, 18.2 µM (inactive); in the assay on ACHN, > 10 µM (inactive); in the assay on SK-MEL-28, 32.8 µM (inactive); in the assay on M14, 27.5 µM (inactive). Further, the GI50 with CAKI-1 was 40.7 µM (inactive); in the assay with EKVX, 26.4 µM (inactive); in the assay with Malme-3M it was 23.9 µM (inactive); in the assay with UO-31, 19.9 µM (inactive); in the assay on HOP-62, 26.8 µM (inactive); in the assay with SN12C, 17 µM (inactive). The GI50 in the assay on IGROV-1 is 23.1 µM (inactive); with MDA-N it was 21.3 µM (inactive); in the assay with SNB-19, 23.7 µM (inactive); in the assay on LOX IMVI, 18.7 µM (inactive); in the assay on SF-295, 21.8 µM (inactive); in the assay on HOP-92 it was 16.1 µM (inactive). The GI50 with NCI-H460 is 26.9 µM (inactive).
